pIC50: −log10 of the molar value.
Assays:
Format in all cases: cell-based, human
[1] = system: NCI-H358 cells (Kras G12C mutation); assay: Cell proliferation inhibition experiment, 3D model, CellTiter-Glo (NCI-H358); details: NCI-H358, 3D sphere plate, 5 days, 2% FBS
How it was run: (§1)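 Luminescent ATP read-out (CellTiter-Glo) after 5-day compound treatment gave % inhibition relative to DMSO control and medium blank, fitted four-parameter for IC50. Spheroids were formed overnight in 2% FBS medium from 800 H358 or 400 A549 cells per well; dilutions were 3.16-fold, final DMSO 0.1%.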

[2] = system: A549 cells (Kras G12S mutation); assay: Cell proliferation inhibition experiment, 3D model, CellTiter-Glo (A549); details: A549, 3D sphere plate, 5 days, 2% FBS
How it was run: as §1

[3] = system: p-ERK in MIA PaCa2 cells (Kras G12C mutation); assay: Cell p-ERK detection experiment (HTRF) in MIA PaCa2 cells; details: compound 2 hours
How it was run: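 MIA PaCa2 cells (KRAS G12C) seeded overnight, then treated 2 h with 3.16-fold compound dilutions (0.1% DMSO). Lysates probed with p-ERK HTRF antibodies for 4 h; inhibition relative to DMSO and blank wells, IC50 from four-parameter fit.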

[4] = system: MIA PaCa-2 cells (Kras G12C mutation); assay: Cell proliferation inhibition experiment, 3D model, CellTiter-Glo (MIA PaCa-2); details: Homo sapiens, MIA PaCa-2, 120 h, MIA PaCa-2, 3D sphere plate, 5 days; read-out: MIA-PaCa2 IC50
How it was run: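 3D spheroid model: 200 MIA PaCa-2 cells per well cultured overnight, then treated with a 3.16-fold compound dilution series (0.1% DMSO) for 5 days. Viability read by CellTiter-Glo luminescence. Inhibition rate normalised to DMSO and medium-blank controls; IC50 from four-parameter fit.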

Row | Structure (SMILES) | pIC50 ([1]; Homo sapiens, NCI-H358, 120 h) | pIC50 ([2]; Homo sapiens, A549, 120 h) | pIC50 ([3]; Homo sapiens, MIA PaCa-2, 2 h) | pIC50 [4] | pIC50 [1] | pIC50 [2] | pIC50 [3]
1 | C=CC(=O)N1CCN2c3nc(=O)n(-c4c(C5CC5)ncnc4C4CC4)c4nc(-c5ccccc5F)c(Cl)c(c34)OC[C@H]2C1 [Compound Z93] | 9.00 | 4.89 | 8.05 | 8.70 |  |  | 
2 | C=CC(=O)N1CCN2c3nc(=O)n(-c4c(C)ccnc4C(C)C)c4nc(-c5ccccc5F)c(Cl)c(c34)OC[C@H]2C1 (single isomer, unassigned) [Compound Z87-2] |  |  |  | 8.70 | 9.00 | 5.26 | 8.05
3 | C=CC(=O)N1CCN2c3nc(=O)n(-c4c(C)ccnc4C(C)C)c4nc(-c5ccccc5F)c(Cl)c(c34)OC[C@@H]2C1 (single isomer, unassigned) [Compound Z46-2] |  |  | 7.70 | 8.10 | 8.52 | 5.26 | 
4 | C=CC(=O)N1CCN2c3nc(=O)n(-c4c(C#N)cnn4C(C)(C)C)c4nc(-c5c(O)cccc5F)c(Cl)c(c34)OC[C@H]2C1 [Compound Z120] | 7.77 | 4.56 | 6.71 | 7.07 |  |  | 
5 | C=CC(=O)N1CCN2c3nc(=O)n(-c4c(C#N)cnn4C(C)(C)C)c4nc(-c5ccccc5F)c(Cl)c(c34)OC[C@H]2C1 (single isomer, unassigned) [Compound Z109-1] |  | 5.07 | 7.74 | 7.92 | 8.30 |  | 

— patent US20220251109A1, “OXAAZAQUINAZOLINE-7(8H)-KETONE COMPOUND, PREPARATION METHOD THEREFOR AND PHARMACEUTICAL APPLICATION THEREOF” (GENFLEET THERAPEUTICS (SHANGHAI) INC., priority 2019, published 2022)
